Experimental data: US11433070B2, “Synergistic anti-inflammatory compositions” (The Procter & Gamble Company, priority 2019, dated 2022)

Legend:
[1] = system: PGE2 release from TERT keratinocytes (tKC); test: PGE2 assay: inhibition of PGE2 release from UVB-stressed keratinocytes, normalized to ATP; assay type: cell-based, human; conditions: for AVG PGE2 % Control / AVG PGE2 % Inhibition: piroctone olamine 1E-7% (w/v), alone or combined (observed), 15 mJ/cm2 UVB, 18-24 h; for Inhibiting PGE2 release from keratinocytes, individually (in words): each material alone
Excerpt: Inhibiting the Cell's Inflammation Response to a Stressor-Prostaglandin E2 (“PGE2”) Assay. […] PGE2 is a hormone-like substance that is known to participate in modulation of inflammation. Cellular inflammation is associated with a variety of hair, skin and scalp conditions, and thus inhibiting PGE2 activation vis-à-vis cellular inflammation may help treat these types of hair, skin and scalp conditions. TERT keratinocytes (tKC) are human keratinocytes which have been transfected with the human telomerase reverse transcriptase gene to immortalize the cells. They are obtained from Jerry Shay, University of Texas, Southwestern and plated at 40,000 cells/well into 24-well plates in 1 ml/well volume. EpiLife Medium (Life Technologies cat #[…]500) supplemented with keratinocyte growth supplement (Life technologies cat #S-001-5) is used as the assay media. The cells are grown to confluence/near confluence, (typically 24 hours after plating 40,000 cells/well in 24 well plate) and then subjected to 15 mJ/cm^2 UVB-stress (typically 14-16 exposure time in BioSun). […] The supernatant is removed from each well, and the cells are rinsed with 2 ml/well medium (without supplements). A Cell Titer-Glo assay (Promega cat #G7571; Madison Wis.) is used to measure ATP activity, which is conducted on the cells for normalization. The supernatant is tested in a PGE2 assay (Prostaglandin E2 Assay kit from Cisbio Bioassays cat #62P2APEB) according to the manufacturer's instructions. The PGE2 results are normalized to ATP activity. The PGE2 quantitation (pg/mL) from the supernatant is divided by the normalization factor (treatment ATP/control ATP). […] Synergy factor is simply the ratio of observed combination/expected combination.

[2] = cited from earlier work
TERT keratinocytes (tKC) = test: Cell Titer-Glo assay measuring ATP activity, used for normalization; assay type: cell-based, human; conditions: example calculation; vehicle control 704567
Protocol: TERT keratinocytes (tKC) are human keratinocytes which have been transfected with the human telomerase reverse transcriptase gene to immortalize the cells. They are obtained from Jerry Shay, University of Texas, Southwestern and plated at 40,000 cells/well into 24-well plates in 1 ml/well volume. EpiLife Medium (Life Technologies cat #[…]500) supplemented with keratinocyte growth supplement (Life technologies cat #S-001-5) is used as the assay media. The cells are grown to confluence/near confluence, (typically 24 hours after plating 40,000 cells/well in 24 well plate) and then subjected to 15 mJ/cm^2 UVB-stress (typically 14-16 exposure time in BioSun). […] The supernatant is removed from each well, and the cells are rinsed with 2 ml/well medium (without supplements). A Cell Titer-Glo assay (Promega cat #G7571; Madison Wis.) is used to measure ATP activity, which is conducted on the cells for normalization. The supernatant is tested in a PGE2 assay (Prostaglandin E2 Assay kit from Cisbio Bioassays cat #62P2APEB) according to the manufacturer's instructions. The PGE2 results are normalized to ATP activity. The PGE2 quantitation (pg/mL) from the supernatant is divided by the normalization factor (treatment ATP/control ATP).

[3] = 1:1 azoxystrobin:PO block, azoxystrobin 1E-7%
[4] = 1:10 azoxystrobin:PO block, azoxystrobin 1E-8%
[5] = 1:50 azoxystrobin:PO block, azoxystrobin 2E-9%
[6] = 4:1 azoxystrobin:PO block, azoxystrobin 4E-7%

SMILES | AVG PGE2 % Control [1, 3] [%] | AVG PGE2 % Inhibition [1, 3] [%] | AVG PGE2 % Control [1, 4] [%] | AVG PGE2 % Inhibition [1, 4] [%] | AVG PGE2 % Control [1, 5] [%] | AVG PGE2 % Inhibition [1, 5] [%] | AVG PGE2 % Control [1, 6] [%] | AVG PGE2 % Inhibition [1, 6] [%] | Inhibiting PGE2 release from keratinocytes, individually (in words) [1] | % inhibition (PGE2) ([1]; example calculation vs vehicle control) [%] | Normalized PGE2 value ([1]; example calculation, PGE2 quantitation divided by normalization factor, control 2458) | PGE2 quantitation ([1]; example calculation, supernatant, before ATP normalization, vehicle control 2458 pg/mL) [pg/mL] | Solubility in water (in words) [2] | Luminescence in ATP assay (TERT keratinocytes (tKC))
CO/C=C(/C(=O)OC)c1ccccc1Oc1cc(Oc2ccccc2C#N)ncn1 [azoxystrobin] | 92 | 8 | 99 | 1 | 99 | 1 | 87 | 13 | relatively weak | 8 | 2261 | 2347 | low solubility in water | 678903
Cc1cc(CC(C)CC(C)(C)C)n(O)c(=O)c1.NCCO (centres unmarked) [piroctone olamine, 1-Hydroxy-4-methyl-6-(2,4,4-trimethylpentyl)-2-pyridone monoethanolamine salt] | 96.5 | 3.5 | 96.2 | 3.8 | 96.2 | 3.8 | 96.2 | 3.8 | relatively weak | – | – | – | – | –
